Results as given in patent US20110021471A1, “REDUCING Abeta42 LEVELS AND Abeta AGGREGATION” (priority 2007, published 2011).

Key:
Notch (C100)-Flag = biological target: T1, Notch (C100)-Flag (Mus musculus, UniProt Q01705); assay: Photoaffinity labelling of Notch (C100)-Flag; assay type: binding
T1 construct: a recombinant substrate derived from mouse Notch (Notch (C100)-Flag)
Description: Photoaffinity labelling. All experiments used the following general protocol. Samples (recombinant or synthetic peptides, cell lysates and membrane preparations) were exposed in borosilicate test tubes to ultraviolet light (350 nm) in a Rayonet Photoreactor R100 (RPR-3500 lamps, Southern New England Ultra Violet Company) in a cold room (4° C.) for 30 minutes or as otherwise noted. Crosslinked samples were analyzed by ELISA for biotin incorporation, or analyzed directly by SDS-PAGE (Criterion-XT, Bio-Rad), or after precipitation with streptavidin ultralink plus beads (Pierce). After immunblotting, proteins were detected using chemiluminesence (ECL Plus, GEHealthcare) or near-infrared fluorescence (LiCor Odyssey). Full-length APP and APP CTFs (CTF83, CTF99) were detected with CT20, a rabbit polyclonal antibody against the C-terminus of APP. Biotin was detected with an affinity-purified rabbit polyclonal antibody (Bethyl). Cell-based screens for amyloid-β modulation. […] Media was analyzed for various amyloid-β species (40, 42 and total) using ELISAs as described herein. The EC50 values for changes in amyloid-β species were calculated by fitting sigmoid dose-response curves using nonlinear regression in Prism (GraphPad) and are shown as values±s.e.m. […]

[1] = biological target: T2, γ-secretase (PSEN1, NCSTN, APH1, PEN2) (UniProt +P49768+Q96BI3+Q9NZ42); assay: Photoaffinity labelling of purified γ-secretase preparation; assay type: binding; conditions: Fen-B 300 μM
T2 construct: made in house; host or cells: CHO c-30 (γ-30) cells

[2] = biological target: amyloid-β peptides (Aβ1-40, Aβ1-36, Aβ1-28, Flag-Aβ25-36) (Homo sapiens, UniProt P05067); assay: Photoaffinity labelling of amyloid-β peptides; assay type: binding
Description: (§1) FIG. 1. […] The top panel is for anti-biotin staining; the middle panel is for anti-FLAG staining; and the bottom panel is an overlay of anti-biotin (red and anti-Flag green, LiCor Odyssey imaging). (E) Same samples as in D, but analyzed using an ELISA. Following crosslinking, C100Flag and N100 Flag were captured using anti-FLAG plate, and biotin incorporation was measured using streptavidin-HRP. […] Fen-B (50 μM) was crosslinked to Aβ (10 μM). Biotin labeling was measured following capture with an anti-Aβ1-16 antibody and detection with streptavidin-HRP.
(§2) Photoaffinity labelling. All experiments used the following general protocol. Samples (recombinant or synthetic peptides, cell lysates and membrane preparations) were exposed in borosilicate test tubes to ultraviolet light (350 nm) in a Rayonet Photoreactor R100 (RPR-3500 lamps, Southern New England Ultra Violet Company) in a cold room (4° C.) for 30 minutes or as otherwise noted. Crosslinked samples were analyzed by ELISA for biotin incorporation, or analyzed directly by SDS-PAGE (Criterion-XT, Bio-Rad), or after precipitation with streptavidin ultralink plus beads (Pierce). After immunblotting, proteins were detected using chemiluminesence (ECL Plus, GEHealthcare) or near-infrared fluorescence (LiCor Odyssey). Full-length APP and APP CTFs (CTF83, CTF99) were detected with CT20, a rabbit polyclonal antibody against the C-terminus of APP. Biotin was detected with an affinity-purified rabbit polyclonal antibody (Bethyl). Cell-based screens for amyloid-β modulation. Human H4 neuroglioma cells (American Type Culture Collection, ATCC) expressing wild-type APP695 protein or CTF105 fused to secreted alkaline phosphatase which is efficiently processed to APP CTFs (CTF83, CTF99) and produce high levels of amyloid-β, were used for the cell-based screens as previously described. Cells were incubated for 5-6 hours in the presence of the various compounds in Opti-Mem culture medium containing 1% fetal bovine serum. Compounds were dissolved in dimethylsulphoxide (DMSO; 0.5% final concentration) and diluted 200-fold. Media was analyzed for various amyloid-β species (40, 42 and total) using ELISAs as described herein. The EC50 values for changes in amyloid-β species were calculated by fitting sigmoid dose-response curves using nonlinear regression in Prism (GraphPad) and are shown as values±s.e.m. Statistical analysis. Data are presented as either percentage control or mean±s.e.m. Results were analyzed using Prism (Graph Pad) with t-tests or one-way analysis of variance analyses (ANOVAs) with Dunnett's post-hoc correction for comparison of multiple samples to a control. Statistical significance is shown as P,0.05 (one asterisk), P,0.01 (two asterisks) or P,0.001 (three asterisks).
Because the putative binding region of GSMs is also found in full-length APP, labeling of both APP fragments in cells was assayed.

APP(C100)-Flag = biological target: T3, APP(C100)-Flag (Homo sapiens, UniProt P05067); assay: Photoaffinity labelling of APP(C100)-Flag and competition; assay type: binding
T3 construct: APP(C100)-Flag, comprising the 99 C-terminal residues of APP plus a methionine at the N-terminus; added methionine (N)
Description: as §1, §2
The ability of a purified, recombinant Flag-tagged γ-secretase substrate derived from APP (APP(C100)-Flag, comprising the 99 C-terminal residues of APP plus a methionine at the N-terminus) to be labeled by Fen-B and Flurbi-BpB was tested.

APP-CTF = biological target: T4, APP-CTF (Homo sapiens, UniProt P05067); assay: Photoaffinity labelling of APP and APP CTF in H4 cell membrane fractions and competition; assay type: binding; conditions: microsomal membrane fractions from H4 cells expressing wild-type APP
T4 construct: this protein was designated α-secretase-derived APP CTF (CTF83) on the basis of molecular weight; expressed in transfected cells
Description: Photoaffinity labelling. All experiments used the following general protocol. Samples (recombinant or synthetic peptides, cell lysates and membrane preparations) were exposed in borosilicate test tubes to ultraviolet light (350 nm) in a Rayonet Photoreactor R100 (RPR-3500 lamps, Southern New England Ultra Violet Company) in a cold room (4° C.) for 30 minutes or as otherwise noted. Crosslinked samples were analyzed by ELISA for biotin incorporation, or analyzed directly by SDS-PAGE (Criterion-XT, Bio-Rad), or after precipitation with streptavidin ultralink plus beads (Pierce). After immunblotting, proteins were detected using chemiluminesence (ECL Plus, GEHealthcare) or near-infrared fluorescence (LiCor Odyssey). Full-length APP and APP CTFs (CTF83, CTF99) were detected with CT20, a rabbit polyclonal antibody against the C-terminus of APP. Biotin was detected with an affinity-purified rabbit polyclonal antibody (Bethyl). Cell-based screens for amyloid-β modulation.

H4Bri-C99 (CTF-3) = tested on: H4Bri-C99 (CTF-3)
Description: FIG. 6. […] Parent GSMs and biotin tagged photoactivatable GSMs were evaluated for their effects on Aβ secreted from H4Bri-C99 (CTF-3). Cells were treated with compounds for 6 hours and Aβ measured by ELISA. […] Changes in Aβ (percent control)±s.e.m., n=3.
as §2

γ-secretase = γ-secretase (Homo sapiens, UniProt P49768); assay: Cell-free in vitro γ-secretase assay; assay type: biochemical
Description: FIG. 5. Fenofibrate-Biotin (Fen-B) is an Aβ42 raising GSM that labels cell-derived APP-CTF. (A) The effects of fenofibrate and fenofibrate-biotin (Fen-B) on Aβ production were investigated in a cell-free in vitro γ-secretase assay performed as described in the methods. […] Percent control Aβ species±s.e.m., n=2. (B) Fen-B labels APP-CTFs from cells lysates. CHAPSO solubilized membrane fractions from H4 APP-CTF-105-AP cells were irradiated (350 nm) in the presence of Fen-B (50 μM) for 30 minutes. Biotinylated material was precipitated with streptavidin overnight (SAv). Beads were washed (3×) and then incubated with XT sample buffer, heated to 95° C., run on 12% Criterion XT gels, and transferred to nitrocellulose membranes. Blots were probed for biotin (Bethyl) and APP (CT20). Excess drug (Fen-B) and unlableled APP-CTF is detected in the flow-through from the beads (unbound lane). Biotin bound to streptavdin (SAv) is detected by the anti-biotin antibody. APP-CTF-83 is pulled down in lane 2 and is reactive with anti-biotin and anti-APP (CT20).
Congo red (CR) and chrysamine G (CG), two of the most well characterized amyloid-β dyes, act as GSMs in cell-free γ-secretase assays.

T3 sequence (P05067 672-770 limits assumed): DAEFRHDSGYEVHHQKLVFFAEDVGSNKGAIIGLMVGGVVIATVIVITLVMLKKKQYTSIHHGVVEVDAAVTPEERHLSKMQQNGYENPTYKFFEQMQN
T4 sequence (P05067 688-770 limits assumed): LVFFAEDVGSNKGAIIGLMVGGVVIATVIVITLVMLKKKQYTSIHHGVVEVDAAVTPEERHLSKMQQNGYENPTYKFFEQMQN
T1 sequence (Q01705 1711-1809 limits assumed): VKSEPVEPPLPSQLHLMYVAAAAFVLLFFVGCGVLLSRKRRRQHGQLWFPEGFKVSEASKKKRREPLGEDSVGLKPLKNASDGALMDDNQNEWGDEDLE

labeling of Aβ1-28 [2]: did not label
labeling of Aβ1-36 [2]: efficiently labeled
labeling of Aβ1-40 [2]: efficiently labeled
labeling of Flag-tagged Aβ25-36 [2]: preferentially label
labeling of CTF-γ (CTF-50) (APP(C100)-Flag; peptides 5 μM, Fen-B 25 μM, 30 minutes): no evidence for binding to CTF-γ
labeling of full-length APP and APP CTFs (APP-CTF): labeled full-length APP and APP CTFs
Aβ42 in cell-free γ-secretase assay (γ-secretase): raise Aβ42 with similar potencies
Compound: CC(C)(Oc1ccc(C(=O)c2ccc(Cl)cc2)cc1)C(=O)NCCCCCNC(=O)CCCCC1SCC2NC(=O)NC21 (stereo not drawn) [Fen-B, N-(5-(2-(4-(4-chlorobenzoyl)phenoxy)-2-methylpropanamido)pentyl)-5-(2-oxo-hexahydro-1H-thieno[3,4-d]imidazol-4-yl)pentanamide]
labeling of Notch (C100)-Flag (Notch (C100)-Flag): less efficient than Fen-B labeling of the APP(C100)-Flag
labeling of γ-secretase components [1]: Absence of PS1, NCT, APH1, and Pen2 labeling
labeling of APP(C100)-Flag (APP(C100)-Flag): label a recombinant APP c-secretase substrate (APP(C100)-Flag) with similar potency
Toxicity, based on cell morphology and XTT assay (H4Bri-C99 (CTF-3)): toxic at higher doses
Aβ42 increase (H4Bri-C99 (CTF-3); 33 μM, 6 hours): ~200%
